Results: ChEMBL document CHEMBL1148089, “Inhibitors of protein tyrosine kinase pp60v-src: sterol sulfates from the brittle star Ophiarachna incrassata” (J Nat Prod, 1994)

Assay: Inhibition of Rous sarcoma virus v-Src

SMILES | IC50 [µM]
CC(CCC[C@@H](C)[C@H]1CC[C@H]2[C@@H]3CC[C@H]4C[C@H](OS(=O)(=O)O)[C@@H](OS(=O)(=O)O)C[C@]4(C)[C@H]3CC[C@]12C)COS(=O)(=O)O (some centres not stated) | 11
CC(C)CCC[C@@H](COS(=O)(=O)O)[C@H]1CC[C@H]2[C@@H]3CC[C@@H]4[C@H](O)[C@H](OS(=O)(=O)O)CC[C@]4(C)[C@H]3[C@@H](O)C[C@]12C | 62
C[C@@]12CCC(=O)c3coc(c31)C(=O)c1cc3c(O)ccc(O)c3cc12 [HELENAQUINOL] | 0.6
C[C@@]12CCC(=O)c3coc(c31)C(=O)c1cc3c(cc12)C(=O)C=CC3=O [HELENAQUINONE] | 1.5
CC(CCC[C@@H](C)[C@H]1CC[C@H]2[C@@H]3CC=C4C[C@H](OS(=O)(=O)O)[C@@H](OS(=O)(=O)O)C[C@]4(C)[C@H]3CC[C@]12C)COS(=O)(=O)O (some centres not stated) | 12
CC(C)CCC[C@@H](COS(=O)(=O)O)[C@H]1CC[C@H]2[C@@H]3CC=C4C[C@H](OS(=O)(=O)O)C[C@@H](O)[C@]4(C)[C@H]3CC[C@]12C | 65
CC(C)CCC[C@@H](COS(=O)(=O)O)[C@H]1CC[C@H]2[C@@H]3CC=C4C[C@H](OS(=O)(=O)O)CC[C@]4(C)[C@H]3CC[C@]12C | 31
